Laboratory results as given in patent US20150105252A1, “SUBSTITUTED PYRAZOLES AS HERBICIDES” (E I DU PONT DE NEMOURS AND COMPANY, priority 2013, published 2015).

Columns and labels:
lambsquarters = assay: Test C postemergence; format: in vivo, Chenopodium album; conditions: for Lambsquarters plant response rating: scale 0 to 100
Outline: (§1)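 Visual control ratings on a 0–100 scale (100 = complete control) made against untreated controls after 13 to 15 days in greenhouse. Compounds applied in surfactant-containing solvent mixture, either preemergence to loam/sand-sown seeds or postemergence to 1- to 4-leaf plants (2–18 cm) in peat medium.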

foxtail, giant = assay: Test C preemergence; format: in vivo, Setaria faberii
Outline: as §1

crabgrass, large = assay: Test C preemergence; format: in vivo, Digitaria sanguinalis
Outline: as §1

ragweed = assay: Test C preemergence; format: in vivo, Ambrosia elation
Outline: as §1

wheat = assay: Test A preemergence; format: in vivo, Triticum aestivum
Outline: (§2)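 Growth medium: loam soil blended with sand. Preemergence treatment used a directed soil spray right after planting; postemergence treatment targeted seedlings at one to two leaves (2–10 cm height). Response was judged by eye relative to untreated plants about 10 days later on a 0–100 control scale.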

nutsedge, yellow = assay: Test C preemergence; format: in vivo, Cyperus esculentus
Outline: as §1

pigweed = assay: Test A postemergence; format: in vivo, Amaranthus retroflexus; conditions: Postemergence, 1000 g ai/ha; visual rating after approx. 10 days, 0 to 100 scale (0 no effect, 100 complete control)
Outline: as §2

ryegrass, Italian [1] = assay: Test C postemergence; format: in vivo, Lolium multiflorum; conditions: postemergence
Outline: as §1

ryegrass, Italian [2] = assay: Test C preemergence; format: in vivo, Lolium multiflorum
Outline: as §1

ducksalad = assay: Test B flood; format: in vivo, Heteranthera limosa; conditions: 250 g ai/ha, visual rating on 0 to 100 scale (0 no effect, 100 complete control), 13 to 15 days
Outline: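 Two-leaf-stage plants, pots flooded (3 cm above soil) and treated through the water, which stayed at that depth. After 13–15 days in greenhouse conditions, visual assessment versus controls: 0 is no effect, 100 complete control, dash means no result.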

corn = assay: Test C postemergence; format: in vivo, Zea mays; conditions: for Corn plant response rating: scale 0 to 100
Outline: as §1

[3] = postemergence, 250 g ai/ha, scale 0 to 100 (0 no effect, 100 complete control)
[4] = postemergence, 125 g ai/ha, scale 0 to 100, 0 no effect, 100 complete control
[5] = preemergence, 31 g ai/ha, scale 0 to 100 (0 no effect, 100 complete control), 13 to 15 days
[6] = preemergence, 62 g ai/ha, 13 to 15 days, scale 0 to 100, 0 = no effect, 100 = complete control
[7] = preemergence, 125 g ai/ha, scale 0 to 100, 0 is no effect, 100 is complete control

Cc1cc(C(=O)NCC(F)(F)F)nn1Cc1ccnc(C(F)(F)F)c1 [Compound 74]
Lambsquarters plant response rating (lambsquarters; Postemergence, 31 g ai/ha): 20 | Lambsquarters plant response rating (lambsquarters; postemergence, 62 g ai/ha): 35 | Plant response rating, Lambsquarters (lambsquarters; [3]): 90 | Plant response rating, Lambsquarters (lambsquarters; [4]): 80 | Plant response rating (scale of 0 to 100), Foxtail, Giant (foxtail, giant; Preemergence, 250 g ai/ha): 100 | Foxtail, Giant plant response rating (foxtail, giant; [5]): 80 | Plant response rating, Foxtail, Giant (foxtail, giant; [6]): 100 | Foxtail, Giant plant response rating (foxtail, giant; [7]): 100 | Plant response rating (scale of 0 to 100), Crabgrass, Large (crabgrass, large; Preemergence, 250 g ai/ha): 100 | Crabgrass, Large plant response rating (crabgrass, large; [5]): 98 | Plant response rating, Crabgrass, Large (crabgrass, large; [6]): 100 | Crabgrass, Large plant response rating (crabgrass, large; [7]): 100 | Plant response rating (scale of 0 to 100), Ragweed (ragweed; Preemergence, 250 g ai/ha): 90 | Ragweed plant response rating (ragweed; [5]): 30 | Plant response rating, Ragweed (ragweed; [6]): 60 | Ragweed plant response rating (ragweed; [7]): 80 | Wheat plant response rating (wheat; Preemergence, 1000 g ai/ha, 0 to 100 scale, 0 no effect, 100 complete control): 100 | Wheat plant response rating (wheat; preemergence, 500 g ai/ha, visual injury after approx. 10 days, 0 to 100 scale (0 no effect, 100 complete control)): 30 | Plant response rating (scale of 0 to 100), Nutsedge, Yellow (nutsedge, yellow; Preemergence, 250 g ai/ha): 98 | Nutsedge, Yellow plant response rating (nutsedge, yellow; [5]): 15 | Plant response rating, Nutsedge, Yellow (nutsedge, yellow; [6]): 60 | Nutsedge, Yellow plant response rating (nutsedge, yellow; [7]): 80 | Pigweed plant response rating (pigweed): 100 | Ryegrass, Italian plant response rating (ryegrass, Italian [1]; 62 g ai/ha, scale 0 to 100): 0 | Plant response rating, Ryegrass, Italian (ryegrass, Italian [1]; 250 g ai/ha, scale 0 to 100 (0 no effect, 100 complete control)): 0 | Plant response rating, Ryegrass, Italian (ryegrass, Italian [1]; 125 g ai/ha, scale 0 to 100, 0 no effect, 100 complete control): 0 | Plant response rating (scale of 0 to 100), Ryegrass, Italian (ryegrass, Italian [2]; Preemergence, 250 g ai/ha): 80 | Ryegrass, Italian plant response rating (ryegrass, Italian [2]; [5]): 5 | Plant response rating, Ryegrass, Italian (ryegrass, Italian [2]; [6]): 5 | Ryegrass, Italian plant response rating (ryegrass, Italian [2]; [7]): 50 | Plant response rating, Ducksalad (ducksalad): 75 | Corn plant response rating (corn; Postemergence, 31 g ai/ha): 10 | Corn plant response rating (corn; postemergence, 62 g ai/ha): 10 | Plant response rating, Corn (corn; [3]): 55 | Plant response rating, Corn (corn; [4]): 20
